The source of these data is patent publication US10934255B2, “Nrf and HIF activators/HDAC inhibitors and therapeutic methods using the same” (THE BOARD OF TRUSTEES OF THE UNIVERSITY OF ILLINOIS, priority 2017, dated 2021).

Molecules are shown by their SMILES.

In series [1] the target is T1, HDAC10 (Homo sapiens, UniProt Q969S8).
T1 sequence (Q969S8 1-669): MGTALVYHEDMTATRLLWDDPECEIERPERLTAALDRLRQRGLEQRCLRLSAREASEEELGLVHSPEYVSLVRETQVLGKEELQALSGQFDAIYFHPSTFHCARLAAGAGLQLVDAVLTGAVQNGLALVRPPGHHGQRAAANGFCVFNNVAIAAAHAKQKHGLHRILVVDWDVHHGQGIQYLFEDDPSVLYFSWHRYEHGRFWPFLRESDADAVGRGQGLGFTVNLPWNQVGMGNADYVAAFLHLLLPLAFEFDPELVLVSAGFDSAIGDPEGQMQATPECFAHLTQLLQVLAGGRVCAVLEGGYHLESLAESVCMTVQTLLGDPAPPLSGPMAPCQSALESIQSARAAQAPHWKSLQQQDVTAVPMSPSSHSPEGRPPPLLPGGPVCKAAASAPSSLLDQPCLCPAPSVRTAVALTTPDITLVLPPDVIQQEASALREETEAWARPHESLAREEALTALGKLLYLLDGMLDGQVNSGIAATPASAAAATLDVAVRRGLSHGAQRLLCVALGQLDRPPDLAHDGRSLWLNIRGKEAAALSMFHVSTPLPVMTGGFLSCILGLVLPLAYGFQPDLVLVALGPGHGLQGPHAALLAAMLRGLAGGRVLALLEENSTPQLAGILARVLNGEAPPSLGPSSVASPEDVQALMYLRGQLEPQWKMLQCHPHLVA
As to the kind of experiment: HDAC10 isoform selectivity assay. The class given is biochemical. As to conditions: Table 2 isoform selectivity; read-out: HDAC Inhibition (IC50 uM) isoform 10. The procedure: (§1) The HDAC1, 2, 4, 5, 6, 7, 8, 9, 10, and 11 assays used isolated recombinant human protein; HDAC3/NcoR2 complex was used for the HDAC3 assay. Substrate for HDAC1, 2, 3, 6, 10, and 11 assays is a fluorogenic peptide from p53 residues 379-382 (RHKKAc); substrate for HDAC8 is fluorogenic diacyl peptide based on residues 379-382 of p53 (RHKAcKAc). Acetyl-Lys(trifluoroacetyl)-AMC substrate was used for HDAC4, 5, 7, and 9 assays. Compounds were dissolved in DMSO and tested in 10-dose IC50 mode with 3-fold serial dilution starting at 30 μM. Control Compound Trichostatin A (TSA) was tested in a 10-dose IC50 with 3-fold serial dilution starting at 5 μM. IC50 values were extracted by curve-fitting the dose/response slopes. Assays were performed in duplicate and IC50 values are an average of data from both experiments.

Series [2] deals with T2, HDAC8 (Homo sapiens, UniProt Q9BY41).
T2 sequence (Q9BY41 1-377): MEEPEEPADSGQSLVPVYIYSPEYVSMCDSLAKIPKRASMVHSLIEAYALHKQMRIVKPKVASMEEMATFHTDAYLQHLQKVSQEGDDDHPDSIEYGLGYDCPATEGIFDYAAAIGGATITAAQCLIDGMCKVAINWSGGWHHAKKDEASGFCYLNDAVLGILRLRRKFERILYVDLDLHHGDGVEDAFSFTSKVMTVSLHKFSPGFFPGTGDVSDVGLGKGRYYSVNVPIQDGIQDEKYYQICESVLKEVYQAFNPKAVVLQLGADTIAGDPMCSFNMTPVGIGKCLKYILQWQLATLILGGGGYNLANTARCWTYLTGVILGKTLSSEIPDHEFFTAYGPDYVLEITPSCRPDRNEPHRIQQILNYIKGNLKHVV
Description: HDAC8 isoform selectivity assay. Conditions: Table 2 isoform selectivity; read-out: HDAC Inhibition (IC50 uM) isoform 8. Format: biochemical. The procedure:
as §1

The target in series [3] is HDAC2 (Homo sapiens, UniProt Q92769). Description: HDAC2 isoform selectivity assay. Format: biochemical. As to conditions: Table 2 isoform selectivity; read-out: HDAC Inhibition (IC50 uM) isoform 2. The procedure: as §1
Series [4] is described as follows: In vitro metabolic stability in human liver microsomes. Format: in vitro ADME. As to conditions: human liver microsomes after 60 min at 10 uM. A general note: Liver microsomes are vesicles of endoplasmic reticulum, rich in cytochrome P450 enzymes.
Series [5] concerns the target HDAC9 (Homo sapiens, UniProt Q9UKV0). Description: HDAC9 isoform selectivity assay. Format: biochemical. As to conditions: Table 2 isoform selectivity; read-out: HDAC Inhibition (IC50 uM) isoform 9. The procedure:
as §1

The target of series [6] is T3, HDAC7 (Homo sapiens, UniProt Q8WUI4).
T3 sequence (Q8WUI4 1-952): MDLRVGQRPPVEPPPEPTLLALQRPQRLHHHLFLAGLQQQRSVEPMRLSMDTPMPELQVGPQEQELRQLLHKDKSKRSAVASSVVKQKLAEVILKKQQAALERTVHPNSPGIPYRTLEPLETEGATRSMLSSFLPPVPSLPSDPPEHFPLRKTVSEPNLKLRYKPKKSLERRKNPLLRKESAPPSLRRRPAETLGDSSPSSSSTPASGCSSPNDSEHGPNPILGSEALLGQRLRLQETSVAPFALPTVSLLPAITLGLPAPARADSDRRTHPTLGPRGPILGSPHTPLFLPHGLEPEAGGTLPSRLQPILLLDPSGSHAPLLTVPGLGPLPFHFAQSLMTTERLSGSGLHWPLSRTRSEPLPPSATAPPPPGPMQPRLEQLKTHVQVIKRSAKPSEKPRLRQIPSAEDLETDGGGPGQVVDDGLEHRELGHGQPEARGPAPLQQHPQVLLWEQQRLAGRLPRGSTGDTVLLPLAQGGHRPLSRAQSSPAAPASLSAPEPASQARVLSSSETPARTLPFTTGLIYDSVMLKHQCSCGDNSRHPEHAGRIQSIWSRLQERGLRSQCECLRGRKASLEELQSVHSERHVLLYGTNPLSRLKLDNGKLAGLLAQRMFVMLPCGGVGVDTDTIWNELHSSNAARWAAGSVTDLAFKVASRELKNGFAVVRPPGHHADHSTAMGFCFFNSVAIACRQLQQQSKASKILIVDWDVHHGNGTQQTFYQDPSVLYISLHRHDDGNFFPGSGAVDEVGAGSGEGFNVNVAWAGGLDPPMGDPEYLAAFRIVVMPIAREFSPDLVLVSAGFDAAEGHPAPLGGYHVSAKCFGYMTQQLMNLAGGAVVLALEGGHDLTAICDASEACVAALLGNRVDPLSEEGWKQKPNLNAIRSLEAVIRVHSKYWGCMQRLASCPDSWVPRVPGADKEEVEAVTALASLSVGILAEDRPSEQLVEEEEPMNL
Description: HDAC7 isoform selectivity assay. As to conditions: Table 2 isoform selectivity; read-out: HDAC Inhibition (IC50 uM) isoform 7. Format: biochemical. The procedure:
as §1

HDAC9, sequence (Q9UKV0 whole entry, canonical isoform): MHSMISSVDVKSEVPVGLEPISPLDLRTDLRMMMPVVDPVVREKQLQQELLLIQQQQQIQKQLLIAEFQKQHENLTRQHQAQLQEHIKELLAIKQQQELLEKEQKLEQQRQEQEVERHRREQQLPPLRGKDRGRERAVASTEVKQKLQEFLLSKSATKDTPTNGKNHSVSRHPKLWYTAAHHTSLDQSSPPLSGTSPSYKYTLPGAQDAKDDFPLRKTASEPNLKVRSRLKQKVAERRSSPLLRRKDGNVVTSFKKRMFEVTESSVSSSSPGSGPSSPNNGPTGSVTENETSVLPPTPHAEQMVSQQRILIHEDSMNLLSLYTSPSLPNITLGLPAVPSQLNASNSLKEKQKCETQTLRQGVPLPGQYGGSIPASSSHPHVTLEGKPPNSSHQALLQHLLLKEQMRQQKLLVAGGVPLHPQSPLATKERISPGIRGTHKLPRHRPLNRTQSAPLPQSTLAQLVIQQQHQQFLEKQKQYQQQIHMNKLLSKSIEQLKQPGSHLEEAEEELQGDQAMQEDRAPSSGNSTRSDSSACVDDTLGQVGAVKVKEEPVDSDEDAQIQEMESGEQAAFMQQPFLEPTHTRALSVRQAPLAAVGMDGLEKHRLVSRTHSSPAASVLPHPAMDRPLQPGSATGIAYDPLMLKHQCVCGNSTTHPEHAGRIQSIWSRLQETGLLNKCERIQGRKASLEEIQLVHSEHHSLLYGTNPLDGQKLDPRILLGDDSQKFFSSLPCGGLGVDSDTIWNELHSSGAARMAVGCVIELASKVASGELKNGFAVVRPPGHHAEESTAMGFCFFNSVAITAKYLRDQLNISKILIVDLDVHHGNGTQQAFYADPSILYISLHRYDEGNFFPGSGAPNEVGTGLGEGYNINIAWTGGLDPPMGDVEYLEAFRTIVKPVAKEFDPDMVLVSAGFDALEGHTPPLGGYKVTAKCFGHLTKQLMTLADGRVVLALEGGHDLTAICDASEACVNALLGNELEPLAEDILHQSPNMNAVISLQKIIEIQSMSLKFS
HDAC2, sequence (Q92769 whole entry, canonical isoform): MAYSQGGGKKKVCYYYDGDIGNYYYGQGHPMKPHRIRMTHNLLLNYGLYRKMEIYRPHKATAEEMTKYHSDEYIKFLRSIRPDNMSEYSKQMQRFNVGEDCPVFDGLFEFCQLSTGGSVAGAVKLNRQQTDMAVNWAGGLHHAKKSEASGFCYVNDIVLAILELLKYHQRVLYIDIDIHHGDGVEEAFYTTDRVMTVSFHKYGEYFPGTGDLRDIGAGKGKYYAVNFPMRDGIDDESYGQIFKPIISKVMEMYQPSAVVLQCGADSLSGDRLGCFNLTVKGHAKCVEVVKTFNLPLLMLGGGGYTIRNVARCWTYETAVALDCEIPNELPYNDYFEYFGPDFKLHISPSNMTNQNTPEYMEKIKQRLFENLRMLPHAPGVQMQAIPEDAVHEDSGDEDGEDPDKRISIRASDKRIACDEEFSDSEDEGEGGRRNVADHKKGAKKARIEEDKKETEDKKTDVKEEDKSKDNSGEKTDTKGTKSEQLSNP

Regarding `O=C(NO)c1ccc(CN2CCc3ccc(F)cc32)cc1` [II-ING-41, 4-((6-Fluoroindolin-1-yl)methyl)-N-hydroxybenzamide], the IC50 (commonly the point on the concentration scale where inhibition reaches its midpoint) in series [1] worked out at 6.03 µM; in series [2], 0.19 µM; in series [3] it was 7.15 µM; in series [5], 1 µM; in series [6] it was 0.46 µM. In series [4], the “Microsomes stability (% remaining vsT0)” value stood at 88.1 % remaining vsT0.

For the compound `Cn1c(NCc2ccc(C(=O)NO)cc2)nc2ccccc21` [II-ING-13, N-Hydroxy-4-(((1-methyl-1H-benzo[d]imidazol-2-yl)amino)methyl)benzamide], the IC50 is 5.95 µM in series [1]; 0.17 µM in series [2]; 5.2 µM in series [3]; 1.1 µM in series [5]; 0.55 µM in series [6].

For the compound `O=C(NO)c1ccc(CN2CCc3ccc(Cl)cc32)cc1` [II-ING-6, 4-((6-Chloroindolin-1-yl)methyl)-N-hydroxybenzamide], the IC50 in series [1] is 6.39 µM; in series [2], 0.53 µM; in series [3], 6.24 µM; in series [5], 2.06 µM; in series [6], 0.98 µM. Also, the “Microsomes stability (% remaining vsT0)” value in series [4] is given as 88.6 % remaining vsT0.

As to `O=C(NO)c1ccc(CN2CCc3cc(Cl)ccc32)cc1` [II-ING-39, 4-((5-Chloroindolin-1-yl)methyl)-N-hydroxybenzamide], in series [4], the “Microsomes stability (% remaining vsT0)” value turned out to be 81.7 % remaining vsT0.
